{"source": "patent US8133294B2", "about": "“Buffered amino alcohol solutions of N-(n-butyl)thiophosphoric triamide (NBPT) and urea fertilizers using such solutions as urease inhibitors” (Whitehurst Associates, Inc., priority 2009, dated 2012)", "key": {"[1]": {"settings": "background description; cited from earlier work"}, "[2]": {"assay": "Stability of NBPT in the buffered mixture on standing (yellowing, hydrogen sulfide odor as signs of decomposition)", "type": "physicochemical"}, "[3]": {"assay": "Solubility limit of NBPT in buffered amino alcohol/carboxylic acid mixture", "type": "physicochemical", "settings": "12% NBPT in MEA/acetic acid buffered mixture, pH 9.2 (Example 3)"}, "[4]": {"assay": "Sulfide test: NBPT containing buffered mixture added to copper (II) containing ARBORITE Binder 75, colour change", "type": "physicochemical", "experimental": "As another example of the instability of this formulation, the buffered NBPT containing mixture was added to ARBORITRE® Binder 75 which is an ethanolamine borate containing copper (II) ions at about 0.75%.\n[…]; The NBPT containing buffered mixture was then added to ARBORITE® Binder 75."}}, "note": "“Also recorded” adds a separate entry of the source.", "data": [{"smiles": "CCCCNP(N)(N)=S", "note": "[NBPT, N-(n-butyl)-thiophosphoric triamide]", "values": [{"measurement": "Hydrolytic and thermal stability", "setting": "[1]", "result": "undergoes hydrolysis and is thermally unstable"}, {"measurement": "Decomposition of NBPT in the buffered mixture over time", "setting": "[2]; 12% NBPT in MEA/acetic acid buffered mixture, pH 9.2 (Example 3)", "result": "no signs of yellowing were observed"}, {"measurement": "Decomposition of NBPT in the buffered mixture over time", "setting": "[2]; MEA/acetic acid buffered mixture, pH 7.0 (Examples 1 and 2)", "result": "turned yellow over time and emitted an odor of hydrogen sulfide; also recorded: caused hydrolysis of the NBPT and released sulfides"}, {"measurement": "Decomposition of NBPT in the buffered mixture over time", "setting": "[2]; TEA/acetic acid buffered mixture, pH 7.6 (Example 6)", "result": "displayed a tendency to yellow over time"}, {"measurement": "Crystallization of the NBPT solution when chilled", "setting": "[3]", "result": "slight crystallization when chilled"}, {"measurement": "Colour change on addition to ARBORITE Binder 75 (sulfides of copper (II))", "setting": "[4]; 20% NBPT in TEA/acetic acid buffered mixture, pH 7.6 (Example 6)", "result": "lost its characteristic blue color and appeared green"}, {"measurement": "Colour change on addition to ARBORITE Binder 75 (sulfides of copper (II))", "setting": "[4]; 25% NBPT in MIPA/acetic acid buffered mixture, pH 9.0 (Example 13)", "result": "No reaction characteristic of the formation of sulfide salts of copper (II) was observed"}, {"measurement": "Colour change on addition to ARBORITE Binder 75 (sulfides of copper (II))", "setting": "[4]; NBPT in MEA/acetic acid buffered mixture, pH 7.0 (Example 1)", "result": "immediately turned brown"}]}]}
